From PMC9246714, “Characterization of inositol lipid metabolism in gut-associated Bacteroidetes” (Nature Microbiology, 2022)

T1: BT_1526 MIPS (Bacteroides thetaiotaomicron, UniProt Q8A7J8)
T1 construct: full-length wild-type ORF (synthetic gene), pET-28a, N-terminal His6 tag, E. coli BL21(DE3); HisTrap and Superdex S200; tetramer in crystal
T1 sequence (Q8A7J8 1-429): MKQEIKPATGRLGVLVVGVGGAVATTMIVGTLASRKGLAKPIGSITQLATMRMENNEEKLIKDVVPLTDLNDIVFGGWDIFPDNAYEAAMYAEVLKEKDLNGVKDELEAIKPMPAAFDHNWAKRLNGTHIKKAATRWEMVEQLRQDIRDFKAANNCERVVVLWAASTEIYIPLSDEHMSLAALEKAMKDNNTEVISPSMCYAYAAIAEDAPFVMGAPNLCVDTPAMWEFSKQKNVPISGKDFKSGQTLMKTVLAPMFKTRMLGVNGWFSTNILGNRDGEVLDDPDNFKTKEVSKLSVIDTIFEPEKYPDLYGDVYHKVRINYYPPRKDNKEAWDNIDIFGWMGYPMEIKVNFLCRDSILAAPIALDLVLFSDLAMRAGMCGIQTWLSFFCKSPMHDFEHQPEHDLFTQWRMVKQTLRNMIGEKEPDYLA


How the values were obtained:
BT_1526 MIPS = target: T1, BT_1526 MIPS; experiment: X-ray crystal structure, […] Å; details: cofactor binding site; crystals grown at pH 6.5, 20 °C
[1] = target: the molecule itself; experiment: crystal structure; sitting drop vapour diffusion, 20 °C; 200 mM sodium formate, 100 mM bis tris propane pH 6.5, 20% (w/v) PEG 3350; protein at 11.4 mg/ml; MIPS:NAD complex

Molecule	X-ray crystal structure, 2.0 Å (BT_1526 MIPS)	stoichiometry N [1]
NC(=O)c1ccc[n+]([C@@H]2O[C@H](COP(=O)(O)OP(=O)(O)OC[C@H]3O[C@@H](n4cnc5c(N)ncnc54)[C@H](O)[C@@H]3O)[C@@H](O)[C@H]2O)c1 [NAD, NAD+]	the structure of the MIPS:NAD complex in the cofactor binding site	
BT_1526 myo-inositol phosphate synthase (MIPS) of Bacteroides thetaiotaomicron (enzyme, UniProt Q8A7J8 1-429, looked up, myo-inositol phosphate synthase BT_1526 of Bacteroides thetaiotaomicron VPI-5482; synthetic gene encoding the BT_1526 open reading frame (wild type) in pET-28a; No cleavage of the His tag is described; also called BT_1526 MIPS; BT MIP synthase; source: E. coli BL21 (DE3), purified (HisTrap, Superdex S200 size-exclusion chromatography)) MKQEIKPATGRLGVLVVGVGGAVATTMIVGTLASRKGLAKPIGSITQLATMRMENNEEKLIKDVVPLTDLNDIVFGGWDIFPDNAYEAAMYAEVLKEKDLNGVKDELEAIKPMPAAFDHNWAKRLNGTHIKKAATRWEMVEQLRQDIRDFKAANNCERVVVLWAASTEIYIPLSDEHMSLAALEKAMKDNNTEVISPSMCYAYAAIAEDAPFVMGAPNLCVDTPAMWEFSKQKNVPISGKDFKSGQTLMKTVLAPMFKTRMLGVNGWFSTNILGNRDGEVLDDPDNFKTKEVSKLSVIDTIFEPEKYPDLYGDVYHKVRINYYPPRKDNKEAWDNIDIFGWMGYPMEIKVNFLCRDSILAAPIALDLVLFSDLAMRAGMCGIQTWLSFFCKSPMHDFEHQPEHDLFTQWRMVKQTLRNMIGEKEPDYLA		4
